Measured values reported in US5059692A, “Novel compounds exhibiting a vasodilating activity and inhibitory activity for platelet aggregation” (priority 1989, dated 1991).

Assays:
[1] = system: washed platelets; test: Inhibition of Platelets Aggregation (P.A.IC50), collagen-induced, washed platelets, turbidmetric method; format: cell-based; settings: Platelet, human washed platelets, 37° C., 2 min preincubation
Procedure: Inhibition of Platelets Aggregation (P.A.IC50)
Preparation of washed platelets (centrifugation method) Blood drawn from healthy human volunteers was anticoagulated with 1/10 volume of 0.38% sodium citrate. Platelets-rich plasma (PRP) was obtained by centrifugation of whole blood at 700× G for 10 minutes. The resulting PRP was then centrifuged at 1500× G for 10 minutes in the presence of 1/6 volume of ACD solution (2.2% of sodium citrate, 0.8% of citric acid and 2.2% of glucose), and the pellet was suspended with the modified HEPES-Tyrode solution (135 mM NaCl, 2.7 mM KCl, 1 mM MgCl2, 0.1% glucose, and 20 mM HEPES; pH 7.4).
After the platelet suspension was centrifuged again at 1500× G for 5 minutes with 1/6 volume of the ACD solution, the pellet was resuspended with the modified HEPES-Tyrode solution. Then the washed platelet suspension (=300,000 platelets/μl) was obtained.
Measurement of Platelet Aggregation (Turbidmetric Method)
Platelet aggregation was studied by the turbidmetric method with an 4 ch. aggregometer (HEMA tracer 601; Nikoh Bioscience Co., Japan). Test sample (3 μl, appropriate concentration) or vehicle (3 μl) was added to 270 μl of the platelet suspension and incubated at 37° C. with stirring for 2 minutes before the addition of 30 μl collagen ([…]).
Estimation of Inhibitory Action
The extent of aggregation was expressed by the maximum change of light transmission expressed as a percentage, taking the difference between light transmission for the platelet suspension and platelet-poor-plasma as a value of 100%. Percent inhibition of aggregation by a test compound was calculated by dividing the percent aggregation by that observed in the control run, then multiplying by 100. IC50 values were expressed as the concentrations of test compounds which produced 50% inhibition of the platelet aggregation.

[2] = system: rabbit mesenteric artery; test: Vasorelaxant Effect (V.R., ED50), KCl-precontracted mesenteric artery strips; settings: Oryctolagus cuniculus; rabbit superior mesenteric artery helical strips, precontracted with 20 mM KCl, 37°±0.5° C., cumulative addition
Procedure: Vasorelaxant Effect (V.R., ED50)
Male albino rabbits were killed by exanguination.
The vascular strips were vertically suspended in an organ bath filled with a Krebs-Henseleit solution the temperature of which was maintained at 37°±0.5° C. A mixture of 95% O2 -5% CO2 was constantly bubbled through the bicarbonate-based solution in the organ bath. Mechanical responses of the rabbit mesenteric artery evoked by a high concentration of KCl were measured isometrically using the force-displacement transducer.
After obtaining a reproducible response to KCl, the preparations were precontracted with 20 mM KCl and then relaxed by the cumulative addition of the compounds. The ED50 value was read from a plot of the percentage of the relaxing response (maximum contractile response to KCl was taken as 100%) vs. the log concentration of the compounds.

COC(=O)c1sc2c(c1N)c1ccsc1c(=O)n2-c1ccccc1 [compound 3, Methyl 1-amino-4,5-dihydro-5-oxo-4-phenyl-dithieno[2,3-b:3',2'-d]pyridine-2-carboxylate]
IC50 [1]: 0.26 µM

COC(=O)c1sc2c(c1N)c1ccccc1c(=O)n2-c1ccccc1C [compound 2, Methyl 1-amino-4,5-dihydro-4-(2-methylphenyl)-5-oxo-thieno[2,3-c]isoquinoline-2-carboxylate]
EC50 [2]: 4.6 µM
IC50 [1]: 0.56 µM

COC(=O)c1sc2c(c1N)c1ccccc1c(=O)n2-c1ccccc1Cl [compound 4, Methyl 1-amino-4-(2-chlorophenyl)-4,5-dihydro-5-oxo-thieno[2,3-c]isoquinoline-2-carboxylate]
EC50 [2]: 5.7 µM
IC50 [1]: 0.1 µM

COC(=O)c1sc2c(c1N)-c1ccccc1CN2c1ccccc1 [compound 10, Methyl 1-amino-4,5-dihydro-4-phenyl-thieno[2,3-c]isoquinoline-2-carboxylate]
EC50 [2]: 8 µM
IC50 [1]: 0.31 µM

COC(=O)c1sc2c(c1N=CN(C)C)c1ccccc1c(=O)n2-c1ccccc1C [compound 8, Methyl 1-dimethylaminomethyleneamino-4,5-dihydro-4-(2-methylphenyl)-5-oxo-thieno[2,3-c]isoquinoline-2-carboxylate]
EC50 [2]: 1.6 µM

COC(=O)c1sc2c(c1N=C1CCCN1C)c1ccccc1c(=O)n2-c1ccccc1C [compound 9, Methyl 4,5-dihydro-4-(2-methylphenyl)-1-(1-methyl-2-pyrrolidinylideneamino)-5-oxo-thieno[2,3-c]isoquinoline-2-carboxylate]
EC50 [2]: 1.1 µM
IC50 [1]: 100 µM

COC(=O)c1sc2c(c1N=CN(C)C)c1ccccc1c(=O)n2-c1ccccc1 [compound 7, Methyl 1-dimethylaminomethyleneamino-4,5-dihydro-5-oxo-4-phenyl-thieno[2,3-c]isoquinoline-2-carboxylate]
EC50 [2]: 74 µM
IC50 [1]: 100 µM

COC(=O)c1sc2c(c1N)c1ccccc1c(=O)n2-c1ccccc1 [compound 1, Methyl 1-amino-4,5-dihydro-5-oxo-4-phenyl-thieno[2,3-c]isoquinoline-2-carboxylate]
EC50 [2]: 20 µM
IC50 [1]: 0.023 µM
